The numbers were not newly measured in patent publication US8030335B2, “Use of liver X receptor agonists” (Laboratoires Fournier S.A., priority 2005, dated 2011), which cites them from elsewhere.

Each structure is given as a SMILES string.

In one series the test system is db/db mice. To be noted: cited from earlier work.
The subject of series [1] is pancreatic islets or insulin-secreting MIN6 cells. To be noted: culture with compound, cited from earlier work.

Turning to `O=S(=O)(c1ccccc1)N(CC(F)(F)F)c1ccc(C(O)(C(F)(F)F)C(F)(F)F)cc1` [T0901317], the plasma glucose level result in the series with db/db mice (db/db mice (not in normal mice)) is “lower plasma glucose level”. Besides, the “expression of PEPCK” value with db/db mice (limits hepatic glucose output) is on record as “inhibits”. Further, in series [1], the islet insulin content result is “increase”. The glucose-dependent insulin secretion result in series [1] (effect only after >72 h of islet culture) is reported as “increase”.
